In patent US20230121926A1, “METHODS FOR TISSUE REGENERATION AND KITS THEREFOR” (THE BOARD OF TRUSTEES OF THE LELAND STANFORD JUNIOR …, priority 2020, published 2023):

What was measured:
[1] = test system: deep partial-thickness excisional wounds; experiment: Porcine deep partial-thickness excisional wound model; type: in vivo, red Duroc pigs
Method: Porcine deep partial-thickness excisional wound model: Prior to operation, animals were administered oral amoxicillin 10 mg/kg for 24 hours. General anesthesia was administered by Veterinary Services personnel and was established with intramuscular telazol 6-8 mg/kg, administered once as a pre-anesthetic. Animals were then intubated using an endotracheal tube and maintained on 1.5-3% of inhaled isoflurane throughout the procedure. The hair on the back was clipped and skin was cleansed initially with Betadine© solution following by a 70% alcohol rinse. Excisional wounds were created with a standard electric Zimmer dermatome (Zimmer Biomet, Warsaw, Ind.). Up to eight wounds, approximately 5 cm×5 cm in size, were created on each lateral flank, with 3-5 cm intervals between wounds (FIG. 1A). Multiple dermatome passes were performed to create deep partial-thickness wounds of uniform 0.07 inch depth. The wounds were randomly assigned to receive either FAKI hydrogel (W_IF), blank hydrogel (‘placebo’, W_H), or no hydrogel (wounded control, W) (n=6-9 wounds per condition). Animals were given oral amoxicillin 10 mg/kg post-operatively twice a day for 5 days total. Wound dressings, including FAKI hydrogel patches, were changed every other day for the first three weeks after initial injury until POD 21 (FIG. 1C). Thereafter, dressings were changed twice per week until POD 90. Animals were subject to short-term sedation for each dressing change. The actual dose delivered to the wound was tested on porcine fresh wounds (red Duroc pigs). In a time-dependent study, the amount of VS-6062 detected at approximately 0.5 mm wound depth over 24 hours ranged from 30-100 microG/g tissue by weight. The amount of VS-6062 detected beyond 1 mm wound depth was less than 5 microG/g tissue. Wound closure, visual scar assessment, and viscoelastic analyses. Wounds were monitored photographically at each dressing change. Days to wound closure, defined as complete re-epithelialization without open wound area, were determined for each wound based on gross photographic assessment. Quantification of scar metrics were performed using a Visual Analog Scale (VAS) for 5 components (vascularity, pigmentation, observer comfort, acceptability, and contour) by a panel of four blinded scar experts. Total scores are calculated as a composite of all 5 scores; lower scores indicate improved scar appearance. A Cutometer (Dual MPA 580, Courage+Khazaka Electronic, Köln, Germany) was used to evaluate the firmness and elasticity of the healing wounds at POD 60. The cutometer measures the vertical deformation of the skin surface by applying a negative pressure (suction) through a small circular diameter (2 mm probe). Cutometer assessment is the gold standard to measure viscoelasticity in human patients. Deformation (suction) for two seconds followed by two seconds of relaxation (no suction) is applied for three cycles. The elasticity ratio (ability for tissue to return back to original setpoint) was measured during the relaxation period (R2 metric). Histological and immunofluorescent staining. […] Masson's Trichrome staining and Picrosirius Red staining were performed. Picrosirius Red-stained images were captured using polarized light microscopy (Leica DM5000 B upright microscope). Collagen fibers were also visualized using Second Harmonic Generation (SHG) on a Leica SP5 upright confocal multi-photon microscope using a […]. SHG images were captured with an excitation wavelength of 860 nm, a pulse length of approximately 100 fs, and an emission filter centered at 445 nm with a 20-nm bandwidth. Forward SHG was used to image fibroblasts and backward SHG was used to image in vivo tissue sections. Analysis of fiber alignment was performed on Picrosirius Red-stained images at 40× magnification using the custom software MatFiber, an intensity-gradient-detection algorithm for analysis of overall alignment of collagen fibers and stress fibers from multiple samples. […]

[2] = Dose of VS-6062 delivered to porcine fresh wounds (tissue level by wound depth); type: in vivo, red Duroc pigs
Method: Porcine deep partial-thickness excisional wound model: Prior to operation, animals were administered oral amoxicillin 10 mg/kg for 24 hours. General anesthesia was administered by Veterinary Services personnel and was established with intramuscular telazol 6-8 mg/kg, administered once as a pre-anesthetic. Animals were then intubated using an endotracheal tube and maintained on 1.5-3% of inhaled isoflurane throughout the procedure. The hair on the back was clipped and skin was cleansed initially with Betadine© solution following by a 70% alcohol rinse. Excisional wounds were created with a standard electric Zimmer dermatome (Zimmer Biomet, Warsaw, Ind.). Up to eight wounds, approximately 5 cm×5 cm in size, were created on each lateral flank, with 3-5 cm intervals between wounds (FIG. 1A). Multiple dermatome passes were performed to create deep partial-thickness wounds of uniform 0.07 inch depth. The wounds were randomly assigned to receive either FAKI hydrogel (W_IF), blank hydrogel (‘placebo’, W_H), or no hydrogel (wounded control, W) (n=6-9 wounds per condition). […] In a time-dependent study, the amount of VS-6062 detected at approximately 0.5 mm wound depth over 24 hours ranged from 30-100 microG/g tissue by weight. The amount of VS-6062 detected beyond 1 mm wound depth was less than 5 microG/g tissue.

[3] = Systemic penetration of topically applied FAKI (mass spectrometry of peripheral blood); type: in vivo, pig; conditions: topical, approximately 7-10% of total body surface area, three pigs
Method: FIG. 6B. Acute, systemic, and implantation toxicity testing of FAKI hydrogel in the porcine model. Mass spectrometry of peripheral blood samples of FAKI-treated pigs was performed to assess systemic penetration of topically applied FAKI covering approximately 7-10% of the total body surface area relative to serum FAKI levels after oral administration of FAKI from a human study. Serum FAKI concentrations via localized delivery were negligible in three independent experiments collected from three different pigs.

dermal fibroblasts = experiment: Fibroblast-populated 3D collagen scaffold under strain (alignment, contraction); type: cell-based, human
Method: Mechanotransduction shifts human fibroblast heterogeneity. […] To confirm the translational potential of the results in the porcine model on the role of mechanotransduction in the fibrotic response, dermal fibroblasts isolated from human surgical patients were then evaluated. Cells were seeded within 3D collagen scaffolds at densities of 2.0 mg/mL collagen and 200,000 cells/mL (FIG. 2A). To artificially increase tissue forces, the mechanical strain applied to fibroblasts was precisely manipulated as described in Chen, K. et al, “Role of boundary conditions in determining cell alignment in response to stretch”, PNAS 115, 986-991, doi:10.1073/pnas.1715059115 (2018), the entire disclosure of which is hereby incorporated by reference in its entirety, and shown in FIG. 2B and FIG. 9A. […] The efficacy of this in vitro system to mimic the fibrogenic phenotype observed in healing wounds and resultant scar was confirmed. […] Fibroblast reorganization of ECM drives collagen remodeling and development of long, aligned collagen fibers characteristic of fibrosis. […]
Fibroblast-populated 3D collagen scaffold experiments. […] Nine Titanium (IV) oxide paint dots (Sigma-Aldrich) were applied on the surface of the central region of the gel (boxes in FIG. 9A) to track and quantify the imposed strains. […]

human dermal fibroblasts = experiment: scRNA-seq of strained human dermal fibroblasts in 3D collagen scaffolds; type: cell-based
From the text: Using this experimental system, in vivo dermal strain patterns were mimicked, imposing biaxial strain upon the fibroblasts, while also attenuating mechanotransduction in a subset of samples. The collagen scaffolds were enzymatically digested to obtain cellular suspensions of fibroblasts, which were then processed for scRNA-seq, as shown in FIGS. 2A and 2C. All single cell data were initially analyzed in a manner blinded to phenotype of origin. Following log-normalization, pooled data were subjected to semi-supervised Louvain-based clustering and embedded into UMAP-space (Seurat). Eight transcriptionally distinct subpopulations (cluster 0 to cluster 7) were identified among cells from the pooled data superset, as shown in FIG. 2D. When unblinded, considerable permissiveness among clusters were found across both phenotypes and biological replicates, consistent with the known heterogeneity among human dermal fibroblasts (FIG. 2D).
Fibroblast-populated 3D collagen scaffold experiments. Dermal fibroblasts were isolated from both porcine and human skin samples and cultured separately. Porcine skin was obtained from the unwounded (normal skin) areas of a euthanized red duroc pig. Human skin samples were obtained under the approved IRB (#54225) and collected from three surgical procedures; a breast mastectomy, an abdominoplasty, and a thighplasty (n=3 patients). Fibroblasts were isolated by mechanical and enzymatic digestion and cultured under standard conditions until passage 3. The primary fibroblast cultures were then used to create fibroblast-populated collagen hydrogels at final concentration of 200 k cells/mL and 2 mg/mL collagen (PureCol, Advanced Biomatrix, San Diego, Calif.), following protocols as described in Chen, K. et al, “Role of boundary conditions in determining cell alignment in response to stretch”, PNAS 115, 986-991, doi:10.1073/pnas.1715059115 (2018), the entire disclosure of which is hereby incorporated by reference in its entirety. In brief, collagen scaffolds were formulated in a cruciform shape in petri dishes with a PDMS coating (˜4 mm) on the bottom (FIG. 2B). Pins were pushed through the hydrogel cruciform arms to constrain the scaffolds in both directions for a 24h pre-culture period before being subjected to either no strain, 10% equibiaxial strain, or strain+FAKI treatment for an additional 48 hours (FIGS. 2A-2B, FIG. 9A). FAKI treatment was administered by adding 20 mM FAKI in DMSO into the culture media of the scaffolds to achieve a final concentration of 10 micromolar FAKI for 48 hours. Strain was imposed by removing the anchoring pins, manually extending the hydrogel cruciform arms, and pushing the pins back to hold the arms in the new, extended position. Nine Titanium (IV) oxide paint dots (Sigma-Aldrich) were applied on the surface of the central region of the gel (boxes in FIG. 9A) to track and quantify the imposed strains. A digital camera was used to image the markers before and after strain. Photographs of marker position were used to compute a single homogenous deformation gradient tensor F that provided the least-squares best fit mapping of the 9 marker positions from the undeformed to deformed positions by solving the overdetermined matrix equation: […]
Single cell barcoding, library preparation, and single cell RNA sequencing. After two days of increased (induction of strain) or inhibited (induction of strain+FAKI) mechanotransduction, collagen scaffolds were micro-dissected and enzymatically digested to obtain cellular suspensions of human fibroblasts for droplet-based microfluidic single cell RNA sequencing (scRNA-seq) using the 10× Chromium Single Cell platform (FIG. 2C) (Single Cell 3′ v3, 10× Genomics, USA). A droplet of the cell suspensions, reverse transcription master mix, and partitioning oil was loaded onto a single cell chip and processed on the Chromium Controller. […]

[4] = POD 60, versus untreated wounds
[5] = porcine wound tissue, treated vs untreated
[6] = 10% strain, 10 micromolar FAKI, 48 hours

CN(c1ncccc1CNc1nc(Nc2ccc3c(c2)CC(=O)N3)ncc1C(F)(F)F)S(C)(=O)=O [VS-6062]
regeneration of secondary structures (hair follicles, cutaneous glands) ([1]; Masson's Trichrome, POD 90 and POD 180): regrowth of hair follicles and other cutaneous glands
wound elasticity (cutometer) [1, 4]: increased elasticity
wound firmness (cutometer) [1, 4]: decreased firmness
intradermal adipocytes (Perilipin A staining) ([1]; POD 90, deep dermal layer): regeneration of Perilipin A-positive intradermal adipocytes
healing earlier than wounds treated with standard dressings or empty hydrogels ([1]; controls healed after POD 24): more than 10 days
gross appearance of the treated wounds ([1]; difference in scarring evident as early as POD 40): normal appearing skin
collagen structure of healed wounds (Picrosirius Red) ([1]; pig, in vivo): basket weave-like collagen structure characteristic to unwounded porcine skin
protein expression of Collagen I (immunofluorescence) [1, 5]: decreased
protein expression of Collagen III (immunofluorescence) [1, 5]: decreased
protein expression of MMP1 (immunofluorescence) [1, 5]: increased
protein expression of MMP3 (immunofluorescence) [1, 5]: increased
protein expression of alpha SMA (immunofluorescence) [1, 5]: decreased
time at which wounds were fully healed ([1]; sustained release hydrogel scaffold, 5x5 cm wounds): 14±2.3 postoperative day (POD)
CT-FIRE fiber count ([1]; trend): return number of fibers closer to unwounded skin
amount of VS-6062 detected in wound tissue ([2]; approximately 0.5 mm wound depth, over 24 hours): 30-100 microG/g tissue by weight
amount of VS-6062 detected in wound tissue ([2]; beyond 1 mm wound depth): less than 5 microG/g tissue
serum FAKI concentrations via localized delivery [3]: negligible
fibroblast alignment under uniaxial strain (dermal fibroblasts; 10% uniaxial strain, 10 micromolar FAKI): aligned multi-directionally
contraction assay: fibroblast remodeling of the ECM environment (dermal fibroblasts; collagen scaffolds): hinders the fibroblasts from remodeling (R) the ECM environment
expression of AIMP3 (human dermal fibroblasts; [6]): increased
expression of MMP1 (human dermal fibroblasts; [6]): increased
expression of Mmp10 (human dermal fibroblasts; [6]): significantly upregulated
transcription of COL1A1 (human dermal fibroblasts; [6]): strongly reduced
transcription of COL3A1 (human dermal fibroblasts; [6]): strongly reduced
strain-induced pro-fibrotic, myofibroblast and mechanotransduction gene expression (ACTA2, PDGFRA, RUNX1, ZEB2, MAPK1, PI3KR1, EGFR, RAC1, YAP1) (human dermal fibroblasts; strained fibroblasts with FAKI): abrogated nearly all of these fibrotic signaling changes
